Measured values from US9821000B2, “Compounds, compositions and corresponding uses for preventing and/or treating of dyslipidemia” (CENTRE NATIONAL DE LA RECHERCHE SCIENTIFIQUE (CNRS), priority 2013, dated 2017).
“Also recorded” adds a separate entry of the source.

Tests used:
[1] = test system: BRIN-BD11 pancreatic β-cells; experiment: Cell viability test (propidium iodide, flow cytometry) of pancreatic β-cells lipo-intoxicated by palmitic acid; assay type: cell-based, rat; conditions: BRIN-BD11, palmitic acid 200 μM, growing concentrations of compound
Experimental: The BRIN-BD11 pancreatic β-cells were cultivated in controlled conditions or in the presence of an exogenous source of saturated fatty acids (palmitic acid 200 μM), as described by Dhayal& Morgan (2011) in order to generate conditions of lipotoxicity with or without addition of OAG or LPA.
FIG. 7A—The proportion of dead cells was estimated in the absence (Ctrl) or in the presence of palmitic acid (Palm), for growing concentrations of OAG and LPA.
The lipidic species are prepared in ethanol and then complexed with bovine serum albumen (BSA initially devoid of fatty acids) by incubation for one hour at 37° C. […]
The pancreatic β-cell cell line (BRIN-BD11) of rats is cultivated in an RPMI-1640 complete medium containing glucose at 11 mM and supplemented with 10% (v/v) of fetal calf serum (FCS), 2 mM of L-glutamine, 100 U/mL of penicillin and 100 μg/mL of streptomycin. […] In the case of the controlled conditions, identical quantities of BSA and ethanol were then used. […] After incubation at 10 minutes on ice, the samples thus obtained are analyzed by cytometry in flux. A Beckman Coulter EPICS XL MCL is used for quantification, an FL3 channel serves to detect emissions from PI interposed in the DNA and the analysis is done by means of the software EXPO32 ADC (Applied Cytometry Systems, V 1.1 build 207).

hem1Δ yeasts = experiment: Phospholipid fatty acid content by mass spectrometry in lipo-intoxicated hem1Δ yeasts; assay type: cell-based, Saccharomyces cerevisiae; conditions: hem1Δ, SFA accumulation, 100 μM compound; for production of di-unsaturated phospholipids (level of PC species 36:2): 7 h
Experimental: The hem1Δ yeasts were cultivated in standard conditions (control) or in conditions of SFA accumulation without (Ø) or with the addition of 100 μM of oleic acid, LPA or OAG as indicated.
FIG. 6A—After 7 h of incubation, the phospholipids (PL) were extracted and the different species of phosphatidylcholine (PC), which constitute the predominantly present PL were analyzed by mass spectrometry in positive mode, according to Pineau et al. (2008).
FIG. 6B—All the species of PL detectable in these conditions of mass spectrometry were analyzed to globally quantify the content in SFA forms.
The hem1Δ strain is cultivated in a YPG^A, YPG^+ or YPG^+ liquid medium+200 μM of compound to be tested in aerobic conditions, under stirring and at 28° C. for 7 h, starting from an initial cell concentration of 2·10^6 cells/mL. At the end of the culture, 10^8 cells are collected in order to carry out the extraction of the total lipids. After the cells have been put in suspension in 1 mL of distilled water at 4° C., 500 μL of glass beads (Ø 0.6 mm) are added and the whole mixture then undergoes three sequences of 20 seconds at 5000 rpm in a stirrer (the tubes are kept on ice between each of the three sequences). The cellular lysate then obtained, complemented with water for rinsing the beads (1 mL), is then transferred into a 40 mL glass tube (Corex™) and then the lipids are extracted by using a methanol:chloroform ratio of 2:1 (v/v). Initially, 6 mL of methanol are added and the entire mixture is vortexed for 30 seconds and then incubated for 15 minutes at 65° C. Once the mixture has been cooled to ambient temperature, […] of chloroform is added and then the entire mixture is again vortexed for 30 seconds before allowing the extraction to take place for 16 h. Subsequently, the sample is centrifuged for 12 minutes at 10000 g and then the supernatant is transferred into a new Corex™ tube. After the addition of 2 mL of chloroform and then 4 mL of distilled water, the entire mixture is vortexed for 30 seconds and then centrifuged for 8 minutes at 3000 g. After elimination of the resultant upper phase, the lower organic phase is collected in a hemolysis tube made of glass. Finally, the solvent is evaporated under a nitrogen stream at 80° C. to obtain total cell lipid samples.
The samples of total cell lipids are put back into suspension in 1 mL of dichloromethane in being vortexed for 30 seconds. The entire mixture is deposited on a silica column (BOND ELUT-SI, 100 mg 1 mL) preconditioned with 3 mL of methanol and then 2 mL of dichloromethane successively. The fraction retained by the column is then washed with 2 mL of dichloromethane and then 2 mL of acetone successively. Finally, 2 mL of a mixture of chloroform/methanol/water 50:45:5 (v/v/v) are deposited on the column and the phospholipids thus eluted are collected in a glass hemolysis tube. The solvent is evaporated under nitrogen at 80° C. to obtain the samples of cellular phospholipids.
Once put back into suspension in 100 μL of mixture Mix^− (isopropanol/acetonitrile/water 2:1:1 (v/v/v)+triethylamine 1% (v/v)) or mixture Mix^+ (isopropanol/acetonitrile/water 2:1:1 (v/v/v)+formic acid 1% (v/v)), the samples are analyzed by mass spectrometry (Electro Spray Ionization-Mass Spectrometry (ESI-MS)) in negative or positive mode respectively and the results obtained serve to analyze the fatty acid content of the different species of phospholipids.

| Compound | apoptosis (proportion of dead cells) of pancreatic β-cells in the presence of saturated fatty acids [1] | production of di-unsaturated phospholipids (level of PC species 36:2) (hem1Δ yeasts) | index of saturation of phospholipids compared with control condition (hem1Δ yeasts) |
| --- | --- | --- | --- |
| CCCCCCCC/C=C\CCCCCCCC(=O)OC[C@@H](O)COP(=O)(O)O [LPA, 1-oleoyl-sn-glycerol-3-phosphate] | prevent apoptosis | increase of the level of this species |  |
| CCCCCCCC/C=C\CCCCCCCC(=O)OC[C@H](CO)OC(C)=O [OAG, 1-oleoyl-2-acetyl-sn-glycerol] | prevent apoptosis | does not restore the production; also recorded: not the case | does not restore an index of saturation comparable to the one observed in the control condition |
